According to PubChem BioAssay (NCI):
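A five-concentration, 48-hour dose response in 96-well plates underlies each endpoint, interpolated linearly between surrounding concentrations. Abbreviation: GI50, concentration required for 50% inhibition of growth. TGI marks complete inhibition of growth.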

Key:
Assay in all cases: NCI tumour cell line growth inhibition, 48 h
UO-31 renal = system: UO-31 renal
KM12 colon = system: KM12 colon
A549 NSCLC = system: A549 NSCLC
TK-10 renal = system: TK-10 renal
SW-620 colon = system: SW-620 colon
IGROV1 ovarian = system: IGROV1 ovarian
A498 renal = system: A498 renal
RPMI-8226 leukemia = system: RPMI-8226 leukemia
SF-539 CNS = system: SF-539 CNS
SK-MEL-2 melanoma = system: SK-MEL-2 melanoma

SMILES	TGI (UO-31 renal)	TGI (KM12 colon)	TGI (A549 NSCLC)	TGI (TK-10 renal)	TGI (SW-620 colon)	TGI (IGROV1 ovarian)	TGI (A498 renal)	TGI (RPMI-8226 leukemia)	TGI (SF-539 CNS)	TGI (SK-MEL-2 melanoma)	GI50 (UO-31 renal)	GI50 (KM12 colon)	GI50 (A549 NSCLC)	GI50 (TK-10 renal)	GI50 (SW-620 colon)	GI50 (IGROV1 ovarian)	GI50 (A498 renal)	GI50 (RPMI-8226 leukemia)	GI50 (SF-539 CNS)	GI50 (SK-MEL-2 melanoma)
Cc1ccc(S(=O)(=O)NC(=O)Nc2nc(Cl)cc(Cl)n2)cc1	> 100 µM	> 100 µM	> 100 µM	> 100 µM	> 100 µM	> 100 µM	> 100 µM	> 100 µM	> 100 µM	> 100 µM										
CCN1CCN(Cc2ccc3cc(C(=O)Nc4cc(NC(=O)c5ccc6c(c5)OCCO6)ccc4F)ccc3n2)CC1	1.13 µM	7.63 µM	11.6 µM	4.29 µM	11 µM	0.848 µM	0.265 µM	0.325 µM	0.72 µM	0.118 µM	0.0376 µM	0.0786 µM	0.0511 µM	0.0429 µM	0.0462 µM	0.0297 µM	0.0159 µM	0.0403 µM	0.0824 µM	0.029 µM
C#CCOc1c(OC)cc(C(=O)/C(C)=C/c2cccc(N=[N+]=[N-])c2)cc1OC	> 100 µM	> 100 µM	> 100 µM	38.9 µM	> 100 µM	> 100 µM	0.714 µM	> 100 µM	0.478 µM	> 100 µM	0.751 µM	0.0845 µM	0.406 µM	0.325 µM	0.0503 µM	0.766 µM	0.151 µM	0.255 µM	0.13 µM	0.725 µM
Cn1c2ccccc2c(=S)c2cc(NC(=O)CCCCC(=O)Nc3ccc4c(c3)c(=S)c3ccccc3n4C)ccc21	> 100 µM	> 100 µM	> 100 µM	> 100 µM	> 100 µM	> 100 µM	> 100 µM	> 100 µM	> 100 µM	> 100 µM										
COc1ccc2oc(-c3ccc(Cl)cc3)c(N3CCN(C)CC3)c2c1	2.71 µM	3.27 µM	3.94 µM	3.58 µM	3.48 µM	2.69 µM	3.15 µM	4.72 µM	3.37 µM	4.4 µM	1.05 µM	1.64 µM	1.83 µM	1.83 µM	1.82 µM	1.05 µM	1.53 µM	1.25 µM	1.78 µM	1.8 µM
COc1cccc(-c2cc(NCc3ccc4c(c3)OCO4)nc(N)n2)c1	17 µM	8.18 µM	14.9 µM	29 µM	16.5 µM	19.1 µM	0.763 µM	34.2 µM	3.22 µM	17.9 µM	0.104 µM	0.072 µM	0.057 µM	8.96 µM	0.0422 µM	0.143 µM	0.033 µM	0.172 µM	0.0909 µM	0.219 µM
COc1ccc2cc(C(=O)/C=C/c3ccccc3OC)ccc2c1	18.8 µM	9.51 µM	11.9 µM	> 40.1 µM	> 33.2 µM	4.06 µM	30.7 µM	10.6 µM	4.6 µM	35.2 µM	5.93 µM	1.6 µM	4.69 µM	2.89 µM	2.81 µM	0.769 µM	6.45 µM	1.65 µM	1.72 µM	10.3 µM
C=C1CCC2C(C)(CO)C(O)CCC2(C)C1CC(O)C1=CCOC1=O (stereo not given)	> 100 µM	> 100 µM	> 100 µM	> 100 µM	51.3 µM	> 100 µM	> 100 µM	> 100 µM	55 µM	> 100 µM										
Cc1cc(Cl)ccc1Nc1nc(C(F)(F)F)ccc1C(=O)N/N=C/c1c(Cl)cccc1Cl		1.92 µM	> 100 µM	1.79 µM	> 100 µM	6.29 µM	> 22.8 µM		4.07 µM	1.33 µM	0.301 µM	0.254 µM	0.51 µM	0.316 µM	0.322 µM	0.357 µM	0.473 µM	0.194 µM	0.638 µM	0.272 µM
COc1cc2c(/C=C3/C(=O)Nc4c3ccc3ccccc43)c(Cl)[nH]c2cc1C	> 34.1 µM		0.778 µM	> 50 µM	> 50 µM		> 50 µM		0.119 µM	> 30.1 µM	0.0216 µM	0.0124 µM	0.0443 µM	30.5 µM	0.0781 µM	0.0125 µM	> 50 µM	0.0144 µM	0.0106 µM	0.872 µM
O=C(Nc1cccc(-n2cc(-c3ccncc3)c(-c3ccc(O)c(Cl)c3)n2)c1)Nc1ccc(Cl)c(C(F)(F)F)c1	7.24 µM	3.26 µM	5.86 µM	7.16 µM	7.62 µM	8.12 µM	7.75 µM	4.63 µM	5.99 µM	4.28 µM	2.65 µM	1.61 µM	1.83 µM	2.96 µM	2.78 µM	2.82 µM	2.47 µM	1.67 µM	1.76 µM	2.14 µM
NNc1nc(-c2ccccn2)nc2sc3c(c12)CCCCCC3	18.7 µM	99 µM	> 100 µM	> 100 µM	> 100 µM	> 100 µM	11.8 µM	24.5 µM	> 100 µM	> 100 µM	1.03 µM	6.46 µM	3.18 µM	9.16 µM	4.53 µM	4.21 µM	1.86 µM	3.25 µM	10.9 µM	14.4 µM
O=C1/C(=c2\c3ccccc3n3c(=O)c4ccccc4nc23)Nc2ccccc21	> 100 µM	> 100 µM	> 100 µM	> 100 µM	> 100 µM	> 100 µM	> 100 µM	> 100 µM	> 100 µM	> 100 µM										
N=C(N)c1ccc(-c2ccc(-c3ccco3)o2)cc1F	3.14 µM	3.62 µM	10.6 µM	3.24 µM	3.7 µM	6.02 µM	4.83 µM	4.68 µM	3.25 µM	3.72 µM	1.43 µM	1.92 µM	3.04 µM	1.69 µM	1.72 µM	2.13 µM	1.36 µM	1.95 µM	1.6 µM	2.09 µM
